Experiment [1] concerns the target T1, Ferrochelatase, mitochondrial (Homo sapiens) (UniProt P22830).
T1 sequence (whole entry): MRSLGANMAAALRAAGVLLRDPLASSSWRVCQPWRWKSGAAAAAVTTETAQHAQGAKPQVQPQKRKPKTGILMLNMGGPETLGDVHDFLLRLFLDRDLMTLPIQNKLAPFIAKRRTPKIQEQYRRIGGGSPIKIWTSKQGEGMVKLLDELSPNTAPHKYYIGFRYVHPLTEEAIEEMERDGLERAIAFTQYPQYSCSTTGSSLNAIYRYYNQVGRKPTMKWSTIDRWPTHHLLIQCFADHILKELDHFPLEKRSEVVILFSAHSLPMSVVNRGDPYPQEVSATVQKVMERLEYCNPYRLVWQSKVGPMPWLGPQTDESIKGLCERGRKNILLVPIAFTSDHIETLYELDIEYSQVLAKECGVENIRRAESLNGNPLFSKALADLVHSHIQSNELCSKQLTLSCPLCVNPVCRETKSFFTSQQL
The following applies: at 10 µM.
Description: Compound was evaluated for the inhibition of human FECH at 10uM

In experiment [2] the target is T2, Porphobilinogen deaminase (Homo sapiens) (UniProt P08397).
T2 sequence (whole entry): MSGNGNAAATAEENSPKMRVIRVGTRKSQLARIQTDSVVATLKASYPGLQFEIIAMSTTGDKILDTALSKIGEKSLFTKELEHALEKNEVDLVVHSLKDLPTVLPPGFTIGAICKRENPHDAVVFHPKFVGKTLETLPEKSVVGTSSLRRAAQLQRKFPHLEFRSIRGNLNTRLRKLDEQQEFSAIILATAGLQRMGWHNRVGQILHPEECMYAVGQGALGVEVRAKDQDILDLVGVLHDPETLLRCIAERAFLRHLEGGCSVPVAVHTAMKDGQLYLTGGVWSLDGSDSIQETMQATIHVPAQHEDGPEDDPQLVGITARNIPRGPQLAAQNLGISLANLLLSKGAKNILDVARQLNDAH
The following applies: at 100 µM.
Description: Compound was evaluated for the inhibition of human HMBS at 100uM

Active and inactive are the calls of the source. No rule for the calls is given here.

As for `CC(=O)Oc1ccccc1C(=O)Nc1ncc([N+](=O)[O-])s1`, the inhibition entry in experiment [1] and in experiment [2] was “inactive” throughout.
For the molecule `CCOC(=O)c1noc(N)c1-c1ccccc1`, the inhibition entry in experiment [1] and in experiment [2] was “inactive” each time.
On to `Cc1ccc(-c2cc(C(=O)Nc3cccnc3)c3cc(Br)ccc3n2)cc1`, for which the inhibition entry in experiment [1] and in experiment [2] was “inactive” in each case.
For the molecule `NS(=O)(=O)c1cccc(-c2ccc3ncc(N4CCOCC4)nc3c2)c1`, the inhibition entry in experiment [1] and in experiment [2] was “inactive” in each case.
As for `NCC(=O)N1CCn2c(nc(-c3ccccc3)c2Nc2ccc3c(c2)OCO3)C1`, the inhibition result in experiment [1] and in experiment [2] was “inactive” throughout.
For `Cn1c(=O)c2c(S(C)(=O)=O)snc2n(C)c1=O`, the inhibition entry in experiment [1] and in experiment [2] was “inactive” each time.
For the molecule `Cc1nnc(NCc2cccc(Cl)c2)c2ccccc12`, the inhibition result in experiment [1] and in experiment [2] was “inactive” throughout.
With `COc1cccc(-c2nc3c(N4CCCC4)cccc3n2CC2CCCN2)n1` (stereo not given), the inhibition result in experiment [1] and in experiment [2] was “inactive” throughout.
With `Oc1c(I)cc(I)c2cccnc12`, the inhibition entry in experiment [1] and in experiment [2] was “inactive” each time.
On to `O=C(Nc1nnc(-c2ccc(Cl)cc2)o1)c1cccc(C(F)(F)F)c1`, for which the inhibition result in experiment [1] and in experiment [2] was “inactive” in each case.
For `c1ccc(Oc2ccc(-c3cc(N4CCNCC4)[nH]n3)cc2)cc1`, the inhibition entry in experiment [1] and in experiment [2] was “inactive” each time.
For the molecule `CC(C)(C)CN1C(=O)C(c2ccccc2)(c2ccccc2)N=C1N`, the inhibition entry in experiment [1] and in experiment [2] was “inactive” in each case.
Turning to `N=C(N)Nc1ccc(-c2ccc(-c3ccc(N=C(N)N)c(Cl)c3)o2)cc1Cl`, the inhibition result in experiment [1] and in experiment [2] was “inactive” throughout.
`CS(=O)(=O)N1CCC(Cn2nc(Cc3cccc4ccccc34)c3c(N)ncnc32)CC1`: the inhibition entry in experiment [1] and in experiment [2] was “inactive” in each case.
For `CCOC(=O)NC(=O)c1ccsc1NC(=O)c1nc2ccccc2s1`, the inhibition result in experiment [1] and in experiment [2] was “inactive” each time.
As to `CNc1cc(C)nc(C2CN(C(=O)c3n[nH]c4ccccc34)CCO2)c1` (stereo not given), the inhibition result in experiment [1] and in experiment [2] was “inactive” in each case.
In the case of `O=C(Nc1nnc(S)s1)c1cc(Br)ccc1Cl`, the inhibition result in experiment [1] and in experiment [2] was “inactive” throughout.
For `c1cncc(NCc2ccc(-c3cc4ccncc4cc3OC3CCNCC3)s2)c1`, the inhibition entry in experiment [1] and in experiment [2] was “inactive” in each case.
In the case of `CC(C)/N=c1\cc2n(-c3ccc(Cl)cc3)c3ccccc3nc-2cc1Nc1ccc(Cl)cc1`, the inhibition result in experiment [1] and in experiment [2] was “inactive” each time.
As for `CC(=O)N(CCN(C(=O)c1ccc(F)cc1)c1ccccc1)c1ccccc1`, the inhibition entry in experiment [1] and in experiment [2] was “inactive” throughout.
`COc1ccc(Cn2cnc3c(-c4ccco4)nc(Cl)nc32)cc1`: the inhibition entry in experiment [1] and in experiment [2] was “inactive” each time.
As to `NC(=O)c1cc(Br)ccc1OCCOc1ccccc1`, the inhibition entry in experiment [1] and in experiment [2] was “inactive” each time.
In the case of `CN(C)CCNC(=O)N1CCCN(c2ncnc3cc(-c4ccccc4)sc23)CC1`, the inhibition entry in experiment [1] and in experiment [2] was “inactive” in each case.
For `CCN(CC)C(=O)N1CCN(C)CC1`, the inhibition entry in experiment [1] and in experiment [2] was “inactive” each time.
As to `CN(C(=O)c1cc2c(-c3cncnc3)cccc2[nH]1)c1ccccc1`, the inhibition entry in experiment [1] and in experiment [2] was “inactive” in each case.
Regarding `O=C(Nc1nc(-c2ccccn2)cs1)c1cncn1-c1ccccc1`, the inhibition result in experiment [1] and in experiment [2] was “inactive” each time.
In the case of `CC(C)n1ncc2c(C(=O)NCC(c3cccs3)N3CCOCC3)cc(-c3ccccc3)nc21` (stereo not given), the inhibition result in experiment [1] and in experiment [2] was “inactive” each time.
Consider `Cc1ccc2[nH]c(C3CCCNC3)c(-c3ccncc3)c2c1` (stereo not given), for which the inhibition result in experiment [1] and in experiment [2] was “inactive” throughout.
For `CC(C)(C)c1cc(C(=O)Nc2cccnc2)cc(C(=O)Nc2cccnc2)c1`, the inhibition entry in experiment [1] and in experiment [2] was “inactive” each time.
For `Cc1[nH]c2cc(F)cc(F)c2c(=O)c1-c1ccc(Oc2ccc(OC(F)(F)F)cc2)cc1`, the inhibition result in experiment [1] and in experiment [2] was “inactive” throughout.
For `Nc1nccc2ccc(-c3ccc4nccn4c3)cc12`, the inhibition result in experiment [1] and in experiment [2] was “inactive” in each case.
Regarding `O=C(C1CCN(c2nnnn2-c2ccccc2)CC1)N1CCc2ccccc2C1`, the inhibition result in experiment [1] and in experiment [2] was “inactive” each time.
Take `Cc1cc(C)n2nc(C(=O)Nc3cc(C(F)(F)F)ccc3N3CCOCC3)nc2n1`: the inhibition result in experiment [1] and in experiment [2] was “inactive” in each case.
As to `CC(C)C(Oc1cccc2ccccc12)C(=O)O` (stereo not given), the inhibition entry in experiment [1] and in experiment [2] was “inactive” in each case.
For `Cc1nnc(NC(=O)c2cn(-c3ccccc3)nc2-c2ccccc2C)o1`, the inhibition entry in experiment [1] and in experiment [2] was “inactive” in each case.
Consider `CO[C@H]1/C=C\O[C@@]2(C)Oc3c(C)c(O)c4c(O)c(/c(=C/NN5CCN(C)CC5)c(O)c4c3C2=O)=N\C(=O)/C(C)=C\C=C/[C@H](C)[C@H](O)[C@@H](C)[C@@H](O)[C@@H](C)[C@H](OC(C)=O)[C@@H]1C`, for which the inhibition result in experiment [1] and in experiment [2] was “inactive” in each case.
Take `Cc1ccc2oc(-c3cc(NC(=O)Cc4ccccc4)ccc3Cl)nc2c1`: the inhibition result in experiment [1] and in experiment [2] was “inactive” in each case.
Take `CCN(CC)S(=O)(=O)c1ccc(Cl)c(C(=O)Nc2ccc3nc(C)sc3c2)c1`: the inhibition entry in experiment [1] and in experiment [2] was “inactive” each time.
In the case of `O=C(c1[nH]nc2c1CCCC2)N1CCN(Cc2ccc3c(c2)OCO3)CC1`, the inhibition entry in experiment [1] and in experiment [2] was “inactive” in each case.
As for `Cc1cccc(-c2nc(Nc3ccncn3)c3sccc3n2)n1`, the inhibition result in experiment [1] and in experiment [2] was “inactive” in each case.
Consider `C[C@H](C(N)=O)N1CCCC[C@H]1c1ccc(OCc2cccc(F)c2)cc1`, for which the inhibition result in experiment [1] and in experiment [2] was “inactive” in each case.
For `CCc1c(C)nc(-n2nc(C)cc2NC(=O)c2ccccc2SC)[nH]c1=O`, the inhibition result in experiment [1] and in experiment [2] was “inactive” each time.
Turning to `N=C(N)c1ccc(-c2cc(-c3ccccc3)on2)cc1`, the inhibition result in experiment [1] and in experiment [2] was “inactive” each time.
Regarding `C[C@H](c1ccc2c(c1)CCCC2)N(C)c1ncc2c(N)nc(N)nc2n1`, the inhibition entry in experiment [1] and in experiment [2] was “inactive” throughout.
In the case of `c1ccc(-c2[nH]c3ccccc3c2C(c2ccccn2)N2CCCC2)cc1` (stereo not given), the inhibition result in experiment [1] and in experiment [2] was “inactive” in each case.
With `Cc1cc(Nc2ccc(C(F)(F)F)cc2)n2ccnc2n1`, the inhibition entry in experiment [1] and in experiment [2] was “inactive” in each case.
In the case of `COc1ccc(N(CCc2cccc(C)n2)C(C)=O)cc1`, the inhibition entry in experiment [1] and in experiment [2] was “inactive” each time.
For `CC(C)(C)[C@H]1CC[C@H](CC2=C(O)C(=O)c3ccccc3C2=O)CC1`, the inhibition entry in experiment [1] and in experiment [2] was “inactive” each time.
As to `COc1ccc(CCN2CCC(NCc3cccc(N(C)C)c3)CC2)cc1`, the inhibition result in experiment [1] and in experiment [2] was “inactive” throughout.
Consider `CCS(=O)(=O)N(Cc1ccco1)Cc1cc2ccc(C)cc2nc1O`, for which the inhibition result in experiment [1] and in experiment [2] was “inactive” throughout.
As to `CCOc1ccc2cc(-c3nn(C(C)(C)C)c(N)c3C(N)=O)cnc2c1`, the inhibition result in experiment [1] and in experiment [2] was “inactive” in each case.
With `CS(=O)(=O)c1ccc(C(=O)N(CC2CCCO2)c2nc3ccccc3s2)cc1[N+](=O)[O-]` (stereo not given), the inhibition result in experiment [1] and in experiment [2] was “inactive” in each case.
On to `Cc1cc2nc(NC(=O)C(C)(C)C)nc(Cl)c2n1Cc1ccc(Cl)cc1`, for which the inhibition result in experiment [1] and in experiment [2] was “inactive” throughout.
With `CO[C@@H](C(=O)N1Cc2[nH]nc(NC(=O)c3ccc(N4CCN(C)CC4)cc3)c2C1)c1ccccc1`, the inhibition result in experiment [1] and in experiment [2] was “inactive” each time.
In the case of `CC(C)n1nc(-c2cc3c(Cl)cccc3[nH]2)c2c(N)ncnc21`, the inhibition result in experiment [1] and in experiment [2] was “inactive” in each case.

For the origin of these results see ChEMBL document CHEMBL3987221, “The Australian National University Dept Of Immunology Pathogen Box Compounds Screened” (2018).
